# Reference: the supplement of paper PMC10331698
# ± gives the standard deviation of the averaged measurements.
# Experiments:
# Assay in all cases: level (log10 ratio to DMSO vehicle control); higher = higher biomarker level / cell amount than vehicle control
# Conditions in all cases: in DMSO
# [1] = compound: FC(F)(F)C(F)(C(F)(F)F)C(F)(F)C(F)(F)CC1CO1 [3-(Perfluoro-3-methylbutyl)-1,2-propenoxide]
# Description: (§1)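 BioMAP Diversity Plus panel of 12 human primary cell co-culture systems (3C, 4H, LPS, SAg, BT, BF4T, BE3C, CASM3C, HDF3CGF, KF3CT, MyoF, Mphg). Compounds were added 1 h before stimulation and left for 24 h (MyoF 48 h; BT 72 h for soluble read-outs or 6 d for IgG). Biomarkers were read by ELISA, cytotoxicity by SRB, PBMC viability and proliferation by Alamar Blue. Each well value was divided by the mean of 8 DMSO control wells on the same plate and log10 transformed; duplicate blinded samples were tested at 4 concentrations.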
# [2] = compound: FC(F)(F)C(F)(F)C(F)(F)C(F)(F)C(F)(F)C(F)(F)C(F)(F)C(F)(F)CCS [2-(Perfluorooctyl)ethanthiol]
# Description: as §1
# Perfluoroheptanoic acid = compound: O=C(O)C(F)(F)C(F)(F)C(F)(F)C(F)(F)C(F)(F)C(F)(F)F [Perfluoroheptanoic acid]
# Description: as §1
# Perfluoropentanoic acid = compound: O=C(O)C(F)(F)C(F)(F)C(F)(F)C(F)(F)F [Perfluoropentanoic acid]
# Description: as §1
# [3] = compound: O=C(O)C(F)(F)C(F)(F)C(F)F [4H-Perfluorobutanoic acid]
# Description: as §1
# [4] = compound: O=C(O)C(F)(F)C(F)(F)OC(F)(F)F [Perfluoro-3-methoxypropanoic acid]
# Description: as §1
# [5] = compound: OCC(F)(F)OC(F)(F)C(F)(F)OC(F)(F)CO [1H,1H,8H,8H-Perfluoro-3,6-dioxaoctane-1,8-diol]
# Description: as §1
Test System,level (log10) ([1]; 6700 nM),level (log10) ([1]; 20000 nM),level (log10) ([2]; 6700 nM),level (log10) ([2]; 20000 nM),level (log10) (Perfluoroheptanoic acid; 6700 nM),level (log10) (Perfluoroheptanoic acid; 20000 nM),level (log10) (Perfluoroheptanoic acid; 60000 nM),level (log10) (Perfluoropentanoic acid; 6700 nM),level (log10) (Perfluoropentanoic acid; 20000 nM),level (log10) (Perfluoropentanoic acid; 60000 nM),level (log10) ([3]; 6700 nM),level (log10) ([3]; 20000 nM),level (log10) ([3]; 60000 nM),level (log10) ([4]; 6700 nM),level (log10) ([4]; 20000 nM),level (log10) ([4]; 60000 nM),level (log10) ([5]; 6700 nM),level (log10) ([5]; 20000 nM),level (log10) ([5]; 60000 nM)
HDF3CGF:CXCL9/MIG,0.0165 ± 0.012,0.0155 ± 0.016,-0.0085 ± 0.0078,-0.0125 ± 0.0092,-0.009 ± 0.0071,-0.002 ± 0.021,0.0165 ± 0.0064,-0.004 ± 0.0057,-0.004 ± 0.018,-0.003 ± 0.02,-0.0015 ± 0.033,-0.0035 ± 0.025,-0.0125 ± 0.028,-0.016 ± 0.016,0.0155 ± 0.019,0.019 ± 0.0014,-0.0035 ± 0.015,-0.015 ± 0.037,0.0345 ± 0.067
BE3C:Keratin 8/18,0.0005 ± 0.03,0.001 ± 0.03,-0.0025 ± 0.0021,-0.009 ± 0.0014,-0.0135 ± 0.005,-0.0135 ± 0.0078,-0.0025 ± 0.012,-0.006 ± 0.0057,-0.011 ± 0.0071,0.0035 ± 0.032,-0.017 ± 0.014,-0.021 ± 0.011,0.0075 ± 0.00071,-0.0155 ± 0.0092,-0.006 ± 0.017,-0.003 ± 0.024,-0.0105 ± 0.0078,-0.003 ± 0.016,-0.0085 ± 0.013
MyoF:CXCL8/IL-8,0.0045 ± 0.00071,0.0185 ± 0.0021,-0.0085 ± 0.011,0.007 ± 0.016,0.002 ± 0.0042,0.0205 ± 0.005,0.0175 ± 0.035,-0.008 ± 0.02,0.01 ± 0.0071,0.024 ± 0.014,-0.0125 ± 0.059,-0.0145 ± 0.0035,0.0465 ± 0.074,0.001 ± 0.033,-0.0165 ± 0.0092,0.0475 ± 0.0078,0.006 ± 0.11,0.0205 ± 0.088,0.0365 ± 0.069
lMphg:CD106/VCAM-1,0.005,-0.0115 ± 0.022,-0.0055 ± 0.0064,-0.0365 ± 0.011,-0.0115 ± 0.005,0.001 ± 0.0014,-0.0095 ± 0.032,0.005 ± 0.02,0.0125 ± 0.018,0.016 ± 0.0057,0.003 ± 0.0028,0.0125 ± 0.016,0.003 ± 0.014,-0.0005 ± 0.035,-0.0035 ± 0.021,-0.0235 ± 0.0035,-0.0355 ± 0.05,-0.0035 ± 0.012,-0.028 ± 0.034
BE3C:MMP-9,-0.005 ± 0.0071,-0.018 ± 0.011,-0.0195 ± 0.011,-0.069 ± 0.018,0.0015 ± 0.018,0.042 ± 0.0014,0.0785 ± 0.057,-0.0325 ± 0.0078,-0.0105 ± 0.015,0.0215 ± 0.035,-0.0105 ± 0.019,0.02 ± 0.023,-0.009 ± 0.02,0.009 ± 0.021,-0.002 ± 0.028,0.0285 ± 0.0078,-0.0115 ± 0.028,0.02 ± 0.04,-0.006 ± 0.013
HDF3CGF:TIMP-2,-0.043 ± 0.081,-0.0475 ± 0.1,-0.0305 ± 0.073,-0.0265 ± 0.069,-0.011 ± 0.018,-0.012 ± 0.017,0.014 ± 0.0085,0.009 ± 0.024,-0.0155 ± 0.018,-0.0025 ± 0.011,-0.0295 ± 0.066,-0.01 ± 0.044,-0.003 ± 0.059,-0.029 ± 0.047,0.001 ± 0.0099,-0.01 ± 0.023,-0.002 ± 0.016,0.002 ± 0.0071,-0.011 ± 0.021
KF3CT:uPA,-0.0045 ± 0.0021,-0.021 ± 0.017,0.006 ± 0.013,0.001 ± 0.016,0.007 ± 0.016,0.0065 ± 0.0021,0.0075 ± 0.013,0.0015 ± 0.023,0 ± 0.0085,0.021 ± 0.0071,0.0125 ± 0.028,0.0275 ± 0.0064,0.007 ± 0.035,0 ± 0.018,-0.0055 ± 0.012,0.002 ± 0.0085,-0.0045 ± 0.0092,-0.011 ± 0.0085,0.0005 ± 0.021
BE3C:MMP-1,0.0085 ± 0.076,0.0445 ± 0.1,-0.0055 ± 0.022,-0.032 ± 0.031,0.0345 ± 0.015,0.0405 ± 0.043,0.0865 ± 0.067,-0.015 ± 0.03,-0.0175 ± 0.029,0.027 ± 0.047,-0.033 ± 0.059,-0.0175 ± 0.0035,0.008 ± 0.051,-0.0025 ± 0.018,0.002 ± 0.013,0.0155 ± 0.00071,0.0105 ± 0.011,-0.013 ± 0.021,0.009 ± 0.052
MyoF:MMP-1,-0.007 ± 0.0085,-0.014 ± 0.0057,-0.0265 ± 0.0092,-0.0545 ± 0.037,-0.0175 ± 0.0064,-0.0245 ± 0.011,0.021 ± 0.061,-0.009 ± 0.02,-0.0215 ± 0.011,0.009 ± 0.071,-0.0355 ± 0.07,-0.07 ± 0.054,0.022 ± 0.044,-0.0135 ± 0.0064,0.0055 ± 0.011,0.0105 ± 0.043,-0.022 ± 0.028,-0.0115 ± 0.011,0.024 ± 0.058
KF3CT:CXCL8/IL-8,-0.0155 ± 0.0078,0.0035 ± 0.013,-0.026 ± 0.034,-0.028 ± 0.037,-0.0055 ± 0.0064,0.002,0.0105 ± 0.00071,-0.0025 ± 0.019,-0.0035 ± 0.005,0.016 ± 0.0071,0.0025 ± 0.0078,0.01 ± 0.0085,0.017 ± 0.0042,0.007 ± 0.016,0.028 ± 0.031,0.017 ± 0.02,0.011 ± 0.021,0.0125 ± 0.028,0.016 ± 0.018
lMphg:SRB-Mphg,0.0005 ± 0.0092,0.0075 ± 0.0021,0.007 ± 0.0057,0.0105 ± 0.018,-0.003 ± 0.014,0.005 ± 0.0071,0.004 ± 0.0042,-0.0125 ± 0.022,0.001 ± 0.0071,0.006 ± 0.017,-0.009 ± 0.075,-0.015 ± 0.054,0 ± 0.027,-0.007 ± 0.02,-0.0165 ± 0.019,-0.022 ± 0.025,-0.015 ± 0.033,0.0175 ± 0.023,0.0455 ± 0.077
CASM3C:Serum Amyloid A,-0.0235 ± 0.012,0.0035 ± 0.047,-0.0145 ± 0.013,0.002 ± 0.047,-0.006 ± 0.021,-0.013 ± 0.04,0.022 ± 0.082,-0.003 ± 0.0071,-0.013 ± 0.011,-0.0045 ± 0.033,-0.056 ± 0.038,-0.083 ± 0.055,-0.0715 ± 0.11,-0.0155 ± 0.0064,-0.017 ± 0.0099,0.008 ± 0.069,-0.0235 ± 0.044,-0.0195 ± 0.043,-0.036 ± 0.025
lMphg:CCL2/MCP-1,-0.0165 ± 0.012,0.0075 ± 0.012,-0.0125 ± 0.0078,-0.003 ± 0.02,-0.0365 ± 0.021,-0.019 ± 0.0042,0.027 ± 0.023,0.038 ± 0.0028,0.0155 ± 0.03,0.0015 ± 0.035,-0.024 ± 0.027,-0.0125 ± 0.0035,0.0005 ± 0.021,-0.0175 ± 0.025,-0.0225 ± 0.029,-0.0075 ± 0.028,-0.0115 ± 0.0035,-0.0145 ± 0.012,0.0155 ± 0.012
